Data set [1] deals with hESCs (H9) differentiating to germ cells. As to the kind of experiment: qPCR gene expression in hESCs differentiated with BMPs in the presence of PAHs. The data set is classed as cell-based, human. As for the experimental part: (§1) A federally approved hESC line (H9, XX) was maintained and differentiated as previously described (see methods of Kee, K., et al. (2006) Stem Cells & Differentiation 15: 831-837, the disclosure of which is incorporated herein). Briefly, adherent differentiation began upon the addition of differentiation media containing 20% FBS (Hyclone) and supplemented with Bone Morphogenetic Proteins (BMPs) -4, -7, and -8b (R&D) reconstituted in 4 mM HCl/0.1% BSA and used at 50 ng/ml. DMBA (Sigma), ANF (Sigma) and DMBA-DHD(MRI) were dissolved in DMSO at a 1:1000 dilution before adding to the media to the indicated final concentrations.
Total RNA was extracted using the RNeasy kit (Qiagen) and cDNA prepared with SuperScriptIII (Invitrogen) according to the manufacturer's protocols using 1 μg RNA. The cDNA was subjected to a pre-amplification using 1.25 μl out of 20 μl total cDNA, 1 μl Platinum Taq (Invitrogen), 5 μl CellsDirect 2× Reaction Buffer and 2.5 μl 0.2× Taqman (Applied Biosystem) probe mix. PCR cycle program for pre-amplification is: 95° C., 10 minutes; 95° C., 15 seconds and 60° C., 4 minutes for 14 cycles. Assays and samples are prepared according to the Fluidigm protocol and run on a 48×48 chip. BioMark (Fluidigm) program was used to obtain delta Ct value before imported into Excel file sheet to calculate delta-delta Ct value=2^(CtGene−CtHousekeeping genes). The delta-delta Ct value is then normalized to the control of each experiment to obtain the final normalized expression level. All delta-delta Ct values were calculated using four housekeeping genes (GAPDH, CTNNB1, ACTS, CENTRIN) except in experiment in FIG. 35, which only used GAPDH as housekeeping gene in a regular qPCR reaction in 7300 Real Time PCR System (Applied Biosystems).

The next data set relates to mouse fetal germ cells. The conditions noted are these: mouse fetal germ cells incubated with PAHs; cited from earlier work.
The test system of data set [2] is VASA:GFP+ PGCs from hESCs. Nature of the data set: VASA:GFP reporter FACS of hESCs with DMBA-DHD and shAHR (Example 3). It is filed as cell-based, human. The procedure: as §1
shRNA was used to target AHR by the BLOCK-IT™ Inducible H1 Lentiviral RNAi System (Invitrogen). Double stranded oligos were generated, ligated into the pENTR vector and transfected into 293FT cells for initial screening. After 24 hours, RNA was harvested using the RNeasy kit and cDNA generated using SuperScriptIII with 1 μg total RNA input. The destination lentiviral vector was generated by recombining the pENTR vector with the pLenti4/BLOCK-it-DEST vector via the Gateway technology according to the manufacturer's protocol. Lentiviral supernatant carrying the pLenti4/BLOCK-it-DEST-shAHR vector was generated by co-transfection with 10 μg of each vector with 10 μg Vsvg and 15 μg Δ8.9 into 293FT cells grow on T175 plates. Supernatant was harvested after three days and either used immediately for transduction of hESCs or frozen at −80° C. until further usage. hESCs prepared for transduction were plated to 50% confluency on matrigel coated plates. Polybrene was added to the lentivirus supernatant for a final concentration of 8 μg/ml. […]
Single cell suspensions were prepared by incubating differentiated hESCs in Collagenase Type IV (1 mg/ml) for ten minutes, followed by ten minutes in TrypLE (Invitrogen). […] Luminescence was measured after 1 hour of incubation at room temperature with Fluostar Optima (BMG).

Data set [3] concerns VASA:GFP+ and VASA:GFP− cells. As to the kind of experiment: Caspase 3/7 apoptosis assay in FACS-sorted cells. The data set is classed as cell-based, human. As to conditions: 1 μM DMBA-DHD. As for the experimental part: Single cell suspensions were prepared by incubating differentiated hESCs in Collagenase Type IV (1 mg/ml) for ten minutes, followed by ten minutes in TrypLE (Invitrogen). Cell pellet was resuspended in 0.5 ml differentiated media and passed through a 40 μm strainer. Cell suspensions were then subjected to FACS analysis with BD FACSAria system (BD). Cells were sorted for either VASA:GFP+ or VASA:GFP−. 1000 cells of each group were collected in 100 μl PBS and mixed with 100 μl of Caspase-Glo 3/7 reagent according to manufacturer protocol (Promega). Luminescence was measured after 1 hour of incubation at room temperature with Fluostar Optima (BMG).

A further data set has as its system DAZL and VASA. As to the kind of experiment: Western blot of DAZL and VASA in human ES cells after silencing/overexpression. The data set is classed as cell-based. The conditions noted are these: human ES cells differentiated 14 days with BMPs. As for the experimental part: (§2) To collect the adherently differentiated cells, cells were washed with 3 ml cold PBS without Ca^2+ and Mg^2+, then scraped from the plate in 1 ml PBS plus 2× protease inhibitors (Complete Mini, Roche) and transferred immediately to a 1.5-ml tube on ice. The PBS cell suspension was then spun at 5,000 r.p.m. in a microcentrifuge for 3 min and the supernatant was discarded. The cell pellet was resuspended with 200 ul RIPA buffer (50 mM Tris, 150 mM NaCl, 0.5% sodium deoxycholate, 1% NP-40, 0.1% SDS, pH 8) plus 2× protease inhibitors (Complete Mini, Roche). The cell pellet suspension was pipetted rigorously at least 10 times, then vortexed for 30 sec. The suspension was again spun down for 3 min at the same speed. The supernatant was measured for protein concentration and denatured at a 1:1 ratio with 2× Laemmli buffer at 95° C. for 5 min, then loaded onto either a 10% or 12% SDS-PAGE gel. The SDS-PAGE gels were run at 150 V for 1 h and transferred to a PVDF membrane for 1 h at 100 V in CAPS buffer (10 mM CAPS, 10% methanol, pH 11). Transferred blots were blocked in 5% non-fat milk for 1 h at room temperature. […]
Background: Immunoblotting shows a protein as a band on a membrane.

Another data set relates to DAZL. As to the kind of experiment: shRNA silencing of DAZL-V5 / DAZL:GFP cotransfected in 293T cells. The data set is classed as cell-based, human. As for the experimental part: as §2
Data set [4] concerns VASA-GFP+ population of human ES cells (H9, HSF1). As to the kind of experiment: VASA-GFP reporter FACS of differentiated human ES cells (Example 1). It is filed as cell-based. As to conditions: XX line (H9), 14 days. As for the experimental part:
2.5 kb of human VASA upstream of the first codon was cloned into pENTR 5′-TOPO. EGFP was fused 1 kb downstream of the last codon of human VASA, and cloned into pENTR/D-TOPO. Cloned plasmids were recombined (Suter, D. M. et al. (2006) Stem Cells 24, 615-623) to create pLVGV. Lentiviral supernatant was produced, human ES cells were transduced overnight on matrigel in conditioned medium and subsequently selected with geneticin ([…]) for 7 days. Selected human ES cells were differentiated for the times indicated and harvested by brief treatment with collagenase IV and then TrypLEExpress (Invitrogen). The cell suspension was prepared in differentiation medium for FACS with a MoFlow or BD cell sorter.
Four human ES cell lines were used in this study: HSF1 (XY), HSF6 (XX), H1 (XY) and H9 (XX). Undifferentiated cultures of human ES cells were maintained on irradiated MEFs as previously described in Kee, K. et al (2006) Stem Cells Dev. 15: 831-837. Briefly, all cultures were grown at 37° C. with 5% CO2 in knockout serum replacer (KSR) plus bFGF medium (knockout DMEM, supplemented with 20% knockout serum replacer, 1 mM L-glutamine, 0.1 mM nonessential amino acids, 0.1 mM 2-mercaptoethanol, and 4 ng ml^−1 recombinant human bFGF (bFGF, R&D systems)). […]

Turning to `O=c1cc(-c2ccccc2)oc2c1ccc1ccccc12` [ANF, α-napthoflavone], in data set [1] (ANF added with DMBA-DHD), the “Rescue of KDR and NES expression” value is reported as “no rescue”. The “Expression of germ cell markers VASA, DAZL and PRDM1” value in data set [1] (ANF added with DMBA-DHD, relative to DMBA-DHD addition alone) was “increased”. For the same molecule, the BAX expression entry in data set [1] (ANF added with DMBA-DHD, relative to DMBA-DHD alone) is given as “decreased”. In the data set with mouse fetal germ cells, the “Fetal germ cell toxicity of PAHs” value is recorded as “could be prevented”.

In the case of `Cc1c2ccccc2c(C)c2c3c(ccc12)C(O)C(O)C=C3` (stereo not drawn) [DMBA-DHD, DMBA-3,4-dihydrodiol], the “Potency relative to DMBA (decrease in germ cell specific gene expression)” value in data set [1] (0.1 μM DMBA-DHD comparable to 1 μM DMBA, 1 μM DMBA-DHD more potent than 10 μM DMBA) is given as “at least one log”. In addition, in data set [1] (hESCs differentiated with BMPs), the “Expression of AFP and CDX2” value was “not reproducibly reduced”; the “Expression of somatic markers KDR and NES” value is reported as “did not significantly alter”. In data set [1] (hESCs differentiated with BMPs, vs DMSO control), the “Increase of BAX expression” value is given as 20 fold. Also, the “Number of PGCs out of 20,000 differentiated hESCs” value in data set [2] (hESCs carrying shLacZ, 1 μM DMBA-DHD, control 908) is around 626. Moreover, in data set [2] (hESCs carrying shLacZ, 14 days BMP induction, 1 μM DMBA-DHD, untreated control 4.5%), the “Percentage of VASA:GFP+ PGCs” value came to 3.1%. Moreover, the “Reduction in human PGCs” value in data set [2] (in the presence of DMBA-DHD) is listed as “less than two-fold”. The “Apoptosis activity (Caspase 3/7)” value in data set [3] (VASA:GFP+ cells) was “significantly increased”. Besides, the “Apoptosis activity (Caspase 3/7)” value in data set [3] (VASA:GFP− cells) is “not in the VASA:GFP− cells”.

Take “shDAZL2: shRNA 5′-GCATATCCTACTTACCCAAAT-3′, SEQ ID NO: 25”: the “Expression of DAZL and VASA” value in the data set on DAZL and VASA is given as “significantly reduced”. Also, the “Silencing of DAZL:GFP fusion protein” value in the data set on DAZL was “most effective”.

Turning to “shDAZL4: shRNA 5′-GCAGAAGATAGTAGAATCACA-3′, SEQ ID NO: 27”, the “Expression of DAZL and VASA” value with DAZL and VASA was “significantly reduced”. The “Silencing of DAZL:GFP fusion protein” value in the data set with DAZL is recorded as “most effective silencer for DAZL”. For the same molecule, the “VASA-GFP+ population” value in data set [4] is “reduced”.

The values are drawn from US9920300B2, “Induction of germ cells from pluripotent cells” (The Board of Trustees of the Leland Stanford Junior …, priority 2009, dated 2018).
